Assay results taken from patent publication US20020076393A1, “Method for stimulation of defensin production” (MAGAININ PHARMACEUTICALS, INC., priority 1998, published 2002).

Key:
[1] = tested on: defensin production in MDBK cells; assay: Defensin induction in MDBK cells (RNA-PCR / QPCR of β-defensin RNA); format: cell-based, bovine; conditions: for effect on defensin production: at concentrations as high as fifty micrograms per milliliter
Description: Cell Culture: MDBK (Madin-Darby Bovine Kidney) cells were obtained from the ATCC (Rockville, Md.) and were maintained in growth medium consisting of Eagle's modified essential media with Earle's balanced salt solution, 10% horse serum, 0.10 mM non-essential amino acids and no antibiotics. For stimulation experiments, cells were plated into six well tissue culture plates and maintained for three days in growth medium until cells were almost confluent. The medium was then changed to serum-free epithelial cell growth medium (Clonetics, San Diego, Calif.) and the test material was added to the dish. Twenty-four hours later, the medium was withdrawn and cells were rinsed with phosphate-buffered saline. Total RNA was then isolated using Trizol reagent (Gibco/BRL, Grand Island, N.Y.) according to protocols supplied by the manufacturer. RNA was quantified by measuring the OD260 of each sample.
RNA-Polymerase Chain Reaction: Total RNA was treated with DNase prior to reverse transcription and PCR. The DNase was heat inactivated at 65° C. in the presence of EDTA for ten minutes. Reverse transcription and PCR were performed essentially as described for the GeneAmp RNA PCR kit (Perkin Elmer, Foster City, Calif.). Briefly, approximately 250 nanograms of total RNA was primed with polydT and reverse transcribed with Murine Leukemia Virus reverse transcriptase in a total volume of 16 μL at room temperature for ten minutes and then at 42° C. for an additional fifteen minutes. The reverse transcriptase was heat inactivated at 99° C. for five minutes and the reaction was chilled to 4 degrees C. This reverse transcription reaction was then split in half: one portion was used for amplification of the target defensin RNA, and the other was treated in parallel to determine the β-tubulin RNA level as a control. Additional reagents necessary for the PCR reaction, including appropriate synthetic DNA primers;
were added after splitting the reverse transcription reactions to bring the reaction volumes to 40 μL. The reactions were then subjected to thermal cycling as follows: 95° C. for one minute, 52° C. for one minute, 72° C. for one minute for 30 cycles followed by a single 72° C. incubation for fifteen minutes to allow for extension. The expected 200 base pair β-defensin PCR product was measured by gel electrophoresis or QPCR (Quantitative PCR).
Product Capture for QPCR System: 10 μL of the final PCR mixture was combined with 15 μL of strepavidin bead slurry (Perkin-Elmer, Foster City, Calif.), 21 μL H2O and 4 μL of 10× PCR buffer to yield a 50 μL binding reaction. The binding reactions were incubated at room temperature for fifteen minutes with occasional agitation. One ml of QPCR assay buffer was then added to the reaction. The quantity of PCR product was subsequently measured with the Perkin-Elmer QPCR instrument (Perkin-Elmer, Foster City, Calif.). The amount of defensin product was normalized to endogenous expression in MDBK cells in the absence of any experimental agent.

[2] = tested on: defensin production in HT-29 cells; assay: Defensin induction in the human colon epithelial cell line HT-29; format: cell-based; conditions: FIG. 5
[3] = tested on: defensin production in epithelial cells; assay: Defensin inducing effect of isoleucine analogs in epithelial cells (FIGS. 6-9); format: cell-based; conditions: for defensin induction: epithelial cells, FIGS. 6, 7 and 8

## CC[C@H](C)[C@H](N)C(=O)O [L-isoleucine]
[1]; FIG. 2
  dose-response effect on defensin production: dose-dependent effect
[1]; L-isoleucine versus D-isoleucine, FIGS. 2 and 3
  concentration increasing defensin production, fold less than that of D-isoleucine: fifty to one-hundred
[2]
  defensin induction: defensin inducing property

## COC(=O)[C@@H](N)Cc1ccc(O)cc1 [L-tyrosine methyl ester, reference compound]
[1]
  effect on defensin production: no effect

## CC(C)[C@H](N)C(=O)O [L-valine]
[3]; FIG. 9
  stimulation of defensin expression, concentrations compared with isoleucine: stimulates defensin expression at concentrations that are substantially higher than those needed for isoleucine
[1]
  effect on defensin production: no effect

## CC[C@@H](C)[C@H](N)C(=O)O [alloisoleucine]
[1]; FIG. 4
  effectiveness as inducer of defensin production compared with isoleucine: not as effective an inducer

## CC[C@H](C)C(=O)C(=O)O [alpha-keto-methylvalerate]
[3]
  defensin induction: inducers of defensin production

## CC[C@H](C)[C@H](N)C(=O)NO [isoleucine hydroxamate]
[3]
  defensin induction: inducers of defensin production
